Results published in patent US20260027116A1, “Methods of Treating Chronic Graft-Versus-Host Disease Following Allogeneic Hematopoietic Stem Cell Transplantation” (Kadmon Corporation, LLC, priority 2022, published 2026).

Key:
lung function = assay: Example 1: percent predicted FVC change from baseline; type: in vivo, human; conditions: mean (SD)
Procedure: Change From Baseline in Percent Predicted Forced Vital Capacity (FVC) at Each Specified Time Points. FVC was the total amount of air (in liters) exhaled from the lungs during the lung function test measured by spirometer which assessed the change in lung function related to the disease status. Baseline value was defined as valid and last non-missing value obtained within 28 days prior to participant receiving first study medication. EOT visit was performed within 3 days after the participant's last dose of study drug. […] Analysis was performed on mITT population. Here, ‘number analyzed’=participants with available data for each specified category. Here, ‘0’ in the number analyzed field signifies that none of the participants were available for the analysis at the specified time points.

P-gp = P-gp (Homo sapiens, UniProt P08183); assay: transporter substrate in vitro; type: in vitro ADME
Sequence of P-gp (P08183 whole entry): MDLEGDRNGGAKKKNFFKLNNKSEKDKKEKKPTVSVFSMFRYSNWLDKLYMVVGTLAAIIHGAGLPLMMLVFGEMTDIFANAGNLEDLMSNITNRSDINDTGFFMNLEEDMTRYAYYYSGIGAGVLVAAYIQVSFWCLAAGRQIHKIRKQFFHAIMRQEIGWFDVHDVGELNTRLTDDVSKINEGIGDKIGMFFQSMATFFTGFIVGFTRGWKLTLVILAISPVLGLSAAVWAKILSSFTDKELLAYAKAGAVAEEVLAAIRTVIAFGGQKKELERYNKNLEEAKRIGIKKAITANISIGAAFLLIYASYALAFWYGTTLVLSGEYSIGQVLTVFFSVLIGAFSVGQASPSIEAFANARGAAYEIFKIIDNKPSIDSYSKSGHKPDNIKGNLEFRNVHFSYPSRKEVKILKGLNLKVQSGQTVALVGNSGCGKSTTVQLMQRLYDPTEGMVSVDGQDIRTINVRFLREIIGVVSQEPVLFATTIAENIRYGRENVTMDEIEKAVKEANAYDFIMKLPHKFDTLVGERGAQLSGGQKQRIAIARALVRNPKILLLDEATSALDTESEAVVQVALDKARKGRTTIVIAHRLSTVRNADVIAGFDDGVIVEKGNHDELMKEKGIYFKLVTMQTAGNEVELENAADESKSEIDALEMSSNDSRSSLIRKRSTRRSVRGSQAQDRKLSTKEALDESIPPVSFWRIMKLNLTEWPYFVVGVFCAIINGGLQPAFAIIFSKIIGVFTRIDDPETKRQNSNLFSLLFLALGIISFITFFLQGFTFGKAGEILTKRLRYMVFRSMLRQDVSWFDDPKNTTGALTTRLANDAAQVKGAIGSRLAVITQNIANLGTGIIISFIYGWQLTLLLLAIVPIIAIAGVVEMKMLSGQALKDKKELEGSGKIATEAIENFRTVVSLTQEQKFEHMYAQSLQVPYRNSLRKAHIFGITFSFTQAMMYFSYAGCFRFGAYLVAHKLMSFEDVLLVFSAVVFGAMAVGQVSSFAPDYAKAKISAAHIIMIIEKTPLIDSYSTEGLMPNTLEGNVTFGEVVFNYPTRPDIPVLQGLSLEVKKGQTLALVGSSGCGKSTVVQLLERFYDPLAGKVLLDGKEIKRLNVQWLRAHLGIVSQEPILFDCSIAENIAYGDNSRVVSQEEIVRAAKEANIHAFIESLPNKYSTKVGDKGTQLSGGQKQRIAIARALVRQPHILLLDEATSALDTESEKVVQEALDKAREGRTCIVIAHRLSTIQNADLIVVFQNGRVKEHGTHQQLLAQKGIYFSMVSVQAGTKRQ

[1] = pharmacokinetics in chronic GVHD patients; type: in vivo, human; conditions: 200 and 400 mg

## CC(C)NC(=O)COc1cccc(-c2nc(Nc3ccc4[nH]ncc4c3)c3ccccc3n2)c1 [Belumosudil, 2-{3-[4-(1H-indazol-5-ylamino)-2-quinazolinyl]phenoxy}-N-(propan-2-yl) acetamide]
Lung function; Cohort 2: 200 mg BID, Cycle 14, Day 1
  Change From Baseline in Percent Predicted Forced Vital Capacity (FVC): 2.0 (— ) percent predicted FVC
Lung function; Cohort 2: 200 mg BID, Cycle 15, Day 1
  Change From Baseline in Percent Predicted Forced Vital Capacity (FVC): −3.3 (5.5) percent predicted FVC
Lung function; Cohort 2: 200 mg BID, Cycle 16, Day 1
  Change From Baseline in Percent Predicted Forced Vital Capacity (FVC): −6.0 (19.8) percent predicted FVC
Lung function; Cohort 2: 200 mg BID, Cycle 17, Day 1
  Change From Baseline in Percent Predicted Forced Vital Capacity (FVC): −3.0 (11.8) percent predicted FVC
Lung function; Cohort 2: 200 mg BID, Cycle 18, Day 1
  Change From Baseline in Percent Predicted Forced Vital Capacity (FVC): −7.5 (9.2) percent predicted FVC
Lung function; Cohort 2: 200 mg BID, Cycle 19, Day 1
  Change From Baseline in Percent Predicted Forced Vital Capacity (FVC): −5.3 (4.7) percent predicted FVC
Lung function; Cohort 2: 200 mg BID, Cycle 20, Day 1
  Change From Baseline in Percent Predicted Forced Vital Capacity (FVC): −10.5 (2.1) percent predicted FVC
Lung function; Cohort 2: 200 mg BID, Cycle 21, Day 1
  Change From Baseline in Percent Predicted Forced Vital Capacity (FVC): −3.0 (—) percent predicted FVC
Lung function; Cohort 2: 200 mg BID, Cycle 22, Day 1
  Change From Baseline in Percent Predicted Forced Vital Capacity (FVC): −11.0 (0.0) percent predicted FVC
Lung function; Cohort 2: 200 mg BID, Cycle 23, Day 1
  Change From Baseline in Percent Predicted Forced Vital Capacity (FVC): −11.0 (2.8) percent predicted FVC
Lung function; Cohort 2: 200 mg BID, Cycle 24, Day 1
  Change From Baseline in Percent Predicted Forced Vital Capacity (FVC): −13.0 (—) percent predicted FVC
Lung function; Cohort 2: 200 mg BID, Cycle 25, Day 1
  Change From Baseline in Percent Predicted Forced Vital Capacity (FVC): −10.5 (3.5) percent predicted FVC
Lung function; Cohort 2: 200 mg BID, Cycle 27, Day 1
  Change From Baseline in Percent Predicted Forced Vital Capacity (FVC): −18.0 (12.7) percent predicted FVC
Lung function; Cohort 2: 200 mg BID, Cycle 29, Day 1
  Change From Baseline in Percent Predicted Forced Vital Capacity (FVC): −11.0 (—) percent predicted FVC
Lung function; Cohort 2: 200 mg BID, Cycle 31, Day 1
  Change From Baseline in Percent Predicted Forced Vital Capacity (FVC): −15.5 (7.8) percent predicted FVC
Lung function; Cohort 2: 200 mg BID, Cycle 33, Day 1
  Change From Baseline in Percent Predicted Forced Vital Capacity (FVC): −17.5 (7.8) percent predicted FVC
Lung function; Cohort 2: 200 mg BID, Cycle 35, Day 1
  Change From Baseline in Percent Predicted Forced Vital Capacity (FVC): −15.0 (11.3) percent predicted FVC
Lung function; Cohort 2: 200 mg BID, EOT
  Change From Baseline in Percent Predicted Forced Vital Capacity (FVC): −8.4 (9.2) percent predicted FVC
Lung function; Cohort 3: 400 mg QD, Cycle 2, Day 1
  Change From Baseline in Percent Predicted Forced Vital Capacity (FVC): −5.5 (9.9) percent predicted FVC
Lung function; Cohort 3: 400 mg QD, Cycle 3, Day 1
  Change From Baseline in Percent Predicted Forced Vital Capacity (FVC): −3.0 (6.7) percent predicted FVC
Lung function; Cohort 3: 400 mg QD, Cycle 4, Day 1
  Change From Baseline in Percent Predicted Forced Vital Capacity (FVC): −0.2 (8.6) percent predicted FVC
Lung function; Cohort 3: 400 mg QD, Cycle 5, Day 1
  Change From Baseline in Percent Predicted Forced Vital Capacity (FVC): 1.6 (6.3) percent predicted FVC
Lung function; Cohort 3: 400 mg QD, Cycle 6, Day 1
  Change From Baseline in Percent Predicted Forced Vital Capacity (FVC): 0.8 (9.5) percent predicted FVC
Lung function; Cohort 3: 400 mg QD, Cycle 7, Day 1
  Change From Baseline in Percent Predicted Forced Vital Capacity (FVC): 2.3 (9.7) percent predicted FVC
Lung function; Cohort 3: 400 mg QD, Cycle 8, Day 1
  Change From Baseline in Percent Predicted Forced Vital Capacity (FVC): 0.4 (8.9) percent predicted FVC
Lung function; Cohort 3: 400 mg QD, Cycle 9, Day 1
  Change From Baseline in Percent Predicted Forced Vital Capacity (FVC): −0.8 (9.5) percent predicted FVC
Lung function; Cohort 3: 400 mg QD, Cycle 10, Day 1
  Change From Baseline in Percent Predicted Forced Vital Capacity (FVC): 4.7 (4.9) percent predicted FVC
Lung function; Cohort 3: 400 mg QD, Cycle 11, Day 1
  Change From Baseline in Percent Predicted Forced Vital Capacity (FVC): −4.4 (12.0) percent predicted FVC
Lung function; Cohort 3: 400 mg QD, Cycle 12, Day 1
  Change From Baseline in Percent Predicted Forced Vital Capacity (FVC): 0.7 (5.8) percent predicted FVC
Lung function; Cohort 3: 400 mg QD, Cycle 13, Day 1
  Change From Baseline in Percent Predicted Forced Vital Capacity (FVC): −4.9 (9.8) percent predicted FVC
Lung function; Cohort 3: 400 mg QD, Cycle 14, Day 1
  Change From Baseline in Percent Predicted Forced Vital Capacity (FVC): −2.7 (7.1) percent predicted FVC
Lung function; Cohort 3: 400 mg QD, Cycle 15, Day 1
  Change From Baseline in Percent Predicted Forced Vital Capacity (FVC): −4.8 (11.5) percent predicted FVC
Lung function; Cohort 3: 400 mg QD, Cycle 16, Day 1
  Change From Baseline in Percent Predicted Forced Vital Capacity (FVC): −6.5 (6.5) percent predicted FVC
Lung function; Cohort 3: 400 mg QD, Cycle 17, Day 1
  Change From Baseline in Percent Predicted Forced Vital Capacity (FVC): −5.6 (12.8) percent predicted FVC
Lung function; Cohort 3: 400 mg QD, Cycle 18, Day 1
  Change From Baseline in Percent Predicted Forced Vital Capacity (FVC): 4.0 (4.0) percent predicted FVC
Lung function; Cohort 3: 400 mg QD, Cycle 19, Day 1
  Change From Baseline in Percent Predicted Forced Vital Capacity (FVC): 0.8 (5.1) percent predicted FVC
Lung function; Cohort 3: 400 mg QD, Cycle 20, Day 1
  Change From Baseline in Percent Predicted Forced Vital Capacity (FVC): −2.0 (5.6) percent predicted FVC
Lung function; Cohort 3: 400 mg QD, Cycle 21, Day 1
  Change From Baseline in Percent Predicted Forced Vital Capacity (FVC): −6.6 (17.0) percent predicted FVC
Lung function; Cohort 3: 400 mg QD, Cycle 22, Day 1
  Change From Baseline in Percent Predicted Forced Vital Capacity (FVC): −6.0 (8.5) percent predicted FVC
Lung function; Cohort 3: 400 mg QD, Cycle 23, Day 1
  Change From Baseline in Percent Predicted Forced Vital Capacity (FVC): −1.8 (10.6) percent predicted FVC
Lung function; Cohort 3: 400 mg QD, Cycle 24, Day 1
  Change From Baseline in Percent Predicted Forced Vital Capacity (FVC): −15.0 (—) percent predicted FVC
Lung function; Cohort 3: 400 mg QD, Cycle 25, Day 1
  Change From Baseline in Percent Predicted Forced Vital Capacity (FVC): −1.3 (11.7) percent predicted FVC
Lung function; Cohort 3: 400 mg QD, Cycle 27, Day 1
  Change From Baseline in Percent Predicted Forced Vital Capacity (FVC): −4.0 (21.2) percent predicted FVC
Lung function; Cohort 3: 400 mg QD, Cycle 29, Day 1
  Change From Baseline in Percent Predicted Forced Vital Capacity (FVC): 6.0 (1.4) percent predicted FVC
Lung function; Cohort 3: 400 mg QD, Cycle 31, Day 1
  Change From Baseline in Percent Predicted Forced Vital Capacity (FVC): −4.0 (—) percent predicted FVC
Lung function; Cohort 3: 400 mg QD, Cycle 35, Day 1
  Change From Baseline in Percent Predicted Forced Vital Capacity (FVC): −3.0 (—) percent predicted FVC
Lung function; Cohort 3: 400 mg QD, Cycle 36, Day 1
  Change From Baseline in Percent Predicted Forced Vital Capacity (FVC): 2.0 (—) percent predicted FVC
Lung function; Cohort 3: 400 mg QD, Cycle 49, Day 1
  Change From Baseline in Percent Predicted Forced Vital Capacity (FVC): 2.0 (—) percent predicted FVC
Lung function; Cohort 3: 400 mg QD, EOT
  Change From Baseline in Percent Predicted Forced Vital Capacity (FVC): −7.8 (14.7) percent predicted FVC
P-gp
  P-gp substrate: substrate of P-gp
[1]
  dose dependence of Cmax and AUC: approximately proportional
